According to US9078890B2, “Use of koumine and its homologues in preparation of medicament for treatment of autoimmune diseases of involved bones and joints” (priority 2011, dated 2015):
Marks after values point to notes of the source that are not given here.

What was measured:
adjuvant arthritis mice [1] = assay: Adjuvant arthritis mice: phlogogenic paw swelling (paw thickness); format: in vivo, Kunming mice; conditions: koumine 0.8, 4, 20 mg/kg intragastric once daily; Day 4-18 after inflammation
Protocol: (§1) BCG was inactivated in water bath at 80° C., and fully emulsified along with complete Freund's adjuvant to form complete Freund's adjuvant emulsion containing 5 mg/ml BCG, preserved at 4° C., and shake well before use. The Kunming mice were divided into a modeling group and a false modeling group. According to the method recited in the literature [Rasool M, Sabina E P, Lavanya B. Anti-inflammatory effect of Spirulina fusiformis on adjuvant-induced arthritis in mice. Biol Pharm Bull. 2006, 29(12):2483-7], for the modeling group, the model was prepared by intradermal injection of 20 ul the emulsion under the plantar surface of right paws after the mice was narcotized; for the false modeling group, the emulsion was replaced with physiological saline. For the modeling group, the animals were screened on Day 8 after injection: the mice with the injected paw thickness increased >0.5 mm and thermal hyperalgesia occurred (paw thermal withdrawal latency <8 second) were selected as experimental subjects. […]
According to Methodology of Pharmacological Experiment (Shuyun Xu, Rulian Bian: Methodology of Pharmacological Experiment [M], 3rd Ed., People's Medical Publishing House: 912-913), paw thickness was selected as a paw swelling index and was measured using vernier caliper, measuring timing is the same as above, each measurement repeats 3 times and the average was taken (similarly hereinafter).

[2] = tested on: serum type II collagen antibody; assay: Type II collagen-induced arthritis rat: serum type II collagen antibody (ELISA); format: in vivo, Wistar rat; conditions: koumine 0.6, 3, 15 mg/kg intragastric once daily 10 days; after intervention finished; dose dependent
Protocol: (§2) Under aseptic conditions, 10 mg chicken type II collagen protein was fully mixed with 5 ml 10 mM glacial acetic acid solution, and stirred overnight in refrigerator at 4° C. to fully dissolve it. It was mixed with complete Freund's adjuvant in equal volume in ice bath to fully emulsify into an emulsion with a collagen concentration of 1 mg/ml.
(§3) Wistar rats are divided into a modeling group and a false modeling group. After the modeling group rats were narcotized with intraperitoneal injection of pentobarbital, the above emulsion was injected intracutaneously at 3 to 4 positions at back, tail root or the like, 0.3 ml for each, an primary immunity was carried out. After 7 days, a secondary immunity was carried out, the emulsifying agent complete Freund's adjuvant of initial immunity was replaced with incomplete Freund's adjuvant, 0.1 ml the emulsion was injected under sevoflurane inhalation anesthesia wherein the injection position is different from the last time. In false modeling group, the emulsion was replaced with solvent glacial acetic acid solution.
(§4) Successfully modeled rat in the modeling group were randomly divide into 5 groups: low, middle, high-dose koumine treatment group, positive control group, negative control group, 10 rats for each group. […]

adjuvant arthritis mice [3] = assay: Adjuvant arthritis mice: condition and body weight; format: in vivo, Kunming mice
Protocol: as §1, with “subjects. The selected mice were divided into 5 groups randomly: low, middle, high dose treatment group (0.8, 4, 20 mg/kg); indomethacin positive control group (10 mg/kg); negative control group (physiological saline), each comprising 12 animals.” for “subjects.”

[4] = tested on: type II collagen-induced arthritis rat; assay: Type II collagen-induced arthritis rat: paw swelling degree and arthritis index; format: in vivo, Wistar rat; conditions: koumine 0.6, 3, 15 mg/kg intragastric; Day 5, Day 10 of intervention; dose dependent
Protocol: as §2, §3, §4

[5] = tested on: type II collagen-induced arthritis rat; assay: Type II collagen-induced arthritis rat: thermal hyperalgesia (thermal withdrawal latency); format: in vivo, Wistar rat; conditions: for Thermal stimulus withdrawal latency, Intervention Day 2: intervention Day 2, 1 hour after administration; for Thermal stimulus withdrawal latency, Intervention Day 4: intervention Day 4, 1 hour after administration; for Thermal stimulus withdrawal latency, Intervention Day 6: intervention Day 6, 1 hour after administration; for Thermal stimulus withdrawal latency, Intervention Day 8: intervention Day 8, 1 hour after administration; for Thermal stimulus withdrawal latency, Intervention Day 10: intervention Day 10, 1 hour after administration
Protocol: as §2, §3
(§5) Successfully modeled rat in the modeling group were randomly divide into 5 groups: low, middle, high-dose koumine treatment group, positive control group, negative control group, 10 rats for each group. Beginning from Day 21 after modeling, corresponding intervention was carried out as following in 10 days continuously: 0.6, 3, 15 mg/kg koumine were intragastrically administrated to the low, middle, high-dose koumine treatment group respectively, 1 time every day; 1 mg/kg amethopterin was administrated to the positive control group, 1 time every 3 days, equal volume of physiological saline was administrated for the remained days; equal volume of physiological saline was administrated to the negative control group.
1 hour after intragastric administration, the thermal withdrawal latency of each group was determined by the photo-thermal dolorimeter; the mechanical pain threshold of rats of each group was determined by Von-frey electromechanical pain threshold detector, thus the condition of thermal hyperalgesia and mechanical hyperalgesia of rats of each group was observed.

adjuvant arthritis mice [6] = assay: Adjuvant arthritis mice: joint pathology damage (HE staining); format: in vivo, Kunming mice; conditions: koumine 0.8, 4, 20 mg/kg intragastric; Day 19; dose dependent
Protocol: as §1, with “subjects. The selected mice were divided into 5 groups randomly: low, middle, high dose treatment group (0.8, 4, 20 mg/kg); indomethacin positive control group (10 mg/kg); negative control group (physiological saline), each comprising 12 animals.” for “subjects.”

[7] = tested on: type II collagen-induced arthritis rat; assay: Type II collagen-induced arthritis rat: condition and body weight; format: in vivo, Wistar rat; conditions: for Body weight before intervention: from Day 21 after modeling for 10 days
Protocol: as §2, §3, §5

[8] = koumine 0.6 mg/kg intragastric once daily
[9] = koumine 3 mg/kg intragastric once daily
[10] = koumine 15 mg/kg intragastric once daily
[11] = koumine 0.6 mg/kg intragastric once daily from Day 21
[12] = koumine 3 mg/kg intragastric once daily from Day 21
[13] = koumine 15 mg/kg intragastric once daily from Day 21

C=CC12CN(C)C3CC14C(=Nc1ccccc14)C1CC2C3CO1 (stereo not shown) [Koumine]
Effect on phlogogenic paw thickness (FIG. 2) (adjuvant arthritis mice [1]): reduces the phlogogenic paw thickness of adjuvant arthritis mice in dose and time-dependent manner | Effect on serum type II collagen antibody level (FIG. 5) [2]: significantly antagonistic effect on type II collagen antibody level increase | Effect on body weight of adjuvant arthritis mice (FIG. 1) (adjuvant arthritis mice [3]; koumine 0.8, 4, 20 mg/kg intragastric once daily, Day 4-18 after inflammation): dose dependent antagonistic effect on body weight reducing | Food intake and activity after inflammation (adjuvant arthritis mice [3]; koumine treatment group 0.8, 4, 20 mg/kg intragastric, negative control decreased obviously): no obvious change was observed | Effect on arthritis index (FIG. 7) [4]: reduces arthritis index | Effect on paw swelling, paw volume (FIG. 6) [4]: relieves the paw swelling | Thermal stimulus withdrawal latency, Before intervention [5, 8]: 7.50 ± 1.34 s | Thermal stimulus withdrawal latency, Intervention Day 2 [5, 8]: 7.81 ± 1.39 s | Thermal stimulus withdrawal latency, Intervention Day 4 [5, 8]: 8.42 ± 1.24 s | Thermal stimulus withdrawal latency, Intervention Day 6 [5, 8]: 10.30 ± 0.73**^★ second | Thermal stimulus withdrawal latency, Intervention Day 8 [5, 8]: 8.96 ± 0.81 s | Thermal stimulus withdrawal latency, Intervention Day 10 [5, 8]: 8.62 ± 2.21 s | Thermal stimulus withdrawal latency, Before intervention [5, 9]: 8.03 ± 1.98 s | Thermal stimulus withdrawal latency, Intervention Day 2 [5, 9]: 8.07 ± 1.86 s | Thermal stimulus withdrawal latency, Intervention Day 4 [5, 9]: 9.16 ± 1.18 s | Thermal stimulus withdrawal latency, Intervention Day 6 [5, 9]: 11.18 ± 2.03**^★ second | Thermal stimulus withdrawal latency, Intervention Day 8 [5, 9]: 10.40 ± 1.74 s | Thermal stimulus withdrawal latency, Intervention Day 10 [5, 9]: 11.62 ± 1.21**^★ second | Thermal stimulus withdrawal latency, Before intervention [5, 10]: 7.68 ± 2.48 s | Thermal stimulus withdrawal latency, Intervention Day 2 [5, 10]: 9.41 ± 0.68 s | Thermal stimulus withdrawal latency, Intervention Day 4 [5, 10]: 10.82 ± 1.07 s | Thermal stimulus withdrawal latency, Intervention Day 6 [5, 10]: 12.98 ± 1.13**^★ second | Thermal stimulus withdrawal latency, Intervention Day 8 [5, 10]: 13.44 ± 1.72 s | Thermal stimulus withdrawal latency, Intervention Day 10 [5, 10]: 13.87 ± 1.26**^★ second | Effect on thermal stimulus withdrawal latency (summary of Table 3) ([5]; koumine 0.6, 3, 15 mg/kg intragastric, dose-effect relationship): can significantly extend the thermal stimulus withdrawal latency | Effect on joint pathology damage, HE staining (FIG. 3) (adjuvant arthritis mice [6]): can improve the inflammatory cell infiltration, synovial hyperplasia, bone destruction | Body weight after intervention, Day 7 [7, 11]: 154.6 ± 7.20 g | Body weight after intervention, Day 14 [7, 11]: 173.1 ± 7.93 g | Body weight after intervention, Day 21 [7, 11]: 194.1 ± 16.67 g | Body weight after intervention, Day 31 [7, 11]: 235.8 ± 5.00 g | Body weight before intervention [7, 8]: 129.9 ± 8.60 g | Body weight after intervention, Day 7 [7, 12]: 145.1 ± 9.24 g | Body weight after intervention, Day 14 [7, 12]: 173.7 ± 4.84 g | Body weight after intervention, Day 21 [7, 12]: 202.3 ± 9.57 g | Body weight after intervention, Day 31 [7, 12]: 240.2 ± 6.85 g | Body weight before intervention [7, 9]: 126.5 ± 7.92 g | Body weight after intervention, Day 7 [7, 13]: 148.7 ± 8.73 g | Body weight after intervention, Day 14 [7, 13]: 176.9 ± 3.86 g | Body weight after intervention, Day 21 [7, 13]: 205.1 ± 6.94 g | Body weight after intervention, Day 31 [7, 13]: 260.3 ± 11.79 g | Body weight before intervention [7, 10]: 127.8 ± 7.45 g | Condition of rats (food intake, activity, fur, emaciation) ([7]; koumine 0.6, 3, 15 mg/kg intragastric once daily): can be improved in a dose dependent manner | Effect on body weight of type II collagen-induced arthritis rats (summary of Table 2) ([7]; koumine 0.6, 3, 15 mg/kg intragastric, robustness-promoting effect on high-dose group): antagonistic effect on body weight reducing
